Assay results as given in article PMC7809260 (Scientific Reports, 2021).
Counter-ions that a name gives are not always drawn. Like-named read-outs stand apart in the source and are kept apart here.

Key:
JumpIn-DAT cells [1] = assay: Effect of pretreatment alone on impedance, dox-treated JumpIn-DAT cells (xCELLigence); format: cell-based, human; conditions: 10 µM, 1 h
[2] = target: human dopamine transporter (DAT) (Homo sapiens, UniProt Q01959); assay: TRACT assay, DAT inhibition in JumpIn-DAT cells (+dox); conditions: dox-treated JumpIn-DAT cells, 10 µM inhibitor compared to vehicle-pretreated cells
Sequence of human dopamine transporter (DAT) (Q01959 whole entry): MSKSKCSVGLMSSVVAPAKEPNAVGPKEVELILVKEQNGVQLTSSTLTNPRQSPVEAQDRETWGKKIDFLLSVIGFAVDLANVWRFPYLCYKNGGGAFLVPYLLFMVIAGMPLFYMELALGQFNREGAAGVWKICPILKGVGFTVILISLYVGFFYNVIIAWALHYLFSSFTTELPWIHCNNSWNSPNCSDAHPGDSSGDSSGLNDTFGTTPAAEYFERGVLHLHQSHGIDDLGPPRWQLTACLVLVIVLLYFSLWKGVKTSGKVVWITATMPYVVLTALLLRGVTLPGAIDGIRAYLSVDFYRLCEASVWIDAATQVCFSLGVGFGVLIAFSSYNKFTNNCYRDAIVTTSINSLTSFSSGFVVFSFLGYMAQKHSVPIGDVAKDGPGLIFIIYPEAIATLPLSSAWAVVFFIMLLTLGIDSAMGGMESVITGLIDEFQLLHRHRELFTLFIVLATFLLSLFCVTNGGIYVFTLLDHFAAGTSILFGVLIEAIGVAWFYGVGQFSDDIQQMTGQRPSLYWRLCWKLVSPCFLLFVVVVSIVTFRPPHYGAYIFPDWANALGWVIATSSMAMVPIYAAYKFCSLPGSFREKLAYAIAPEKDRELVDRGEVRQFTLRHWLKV

JumpIn-DAT cells [3] = assay: cells; conditions: Homo sapiens
U2OS-DAT cells [4] = assay: Effect of pretreatment alone on impedance, U2OS-DAT cells (xCELLigence); format: cell-based, human; conditions: 10 µM, 1 h incubation
DAT [5] = conditions: cited from earlier work
DAT [6] = conditions: cited from earlier work; remark: listed apart in the source
U2OS-DAT cells [7] = assay: GPCR antagonist experiment, dopamine-induced cell response in U2OS-DAT cells (xCELLigence); format: cell-based, human; conditions: 1 µM antagonist 1 h, then 10 µM dopamine
Method: Impedance was measured overnight every 15 min.

[8] = tested on: non-transfected U2OS cells; assay: GPCR antagonist experiment, dopamine-induced response in non-transfected U2OS cells (xCELLigence); format: cell-based, human; conditions: 1 µM antagonist 1 h, then 316 nM dopamine
Method: Figure S1. Representative vehicle-corrected xCELLigence traces of GPCR antagonists in three cell lines. (a) Pretreatment of U2OS-DAT cells with 1 µM antagonist for 1 h. (b) […]
vehicle, 1 µM SCH23390 or raclopride for 1 h. ( c) Pretreatment of JumpIn-DAT cells in the (1 picture or pasted object on this page, not shown here)

JumpIn-DAT cells [9] = assay: GPCR antagonist experiment, dopamine response in dox-treated JumpIn-DAT cells (xCELLigence); format: cell-based, human; conditions: 1 µM antagonist 1 h, then 31.6 µM dopamine
DAT [10] = target: T1, DAT (Homo sapiens, UniProt Q01959); assay: [3H]WIN35,428 saturation binding assay
T1 construct: host or cells: U2OS, transient PEI transfection of pcDNA3.1(+)-DAT; whole cells or membranes
T1 sequence (Q01959 whole entry): as above

For `COC(=O)[C@H]1[C@@H](OC(=O)c2ccccc2)C[C@@H]2CC[C@H]1N2C.Cl` [Cocaine, Cocaine hydrochloride], the “effect of pretreatment on its own on impedance” value (JumpIn-DAT cells [1]) was “did not substantially affect impedance over time” and the “enhancement of the apparent potency of dopamine by DAT inhibitor” value [2] was “threefold”.
Work on `NCCc1ccc(O)c(O)c1` [Dopamine, dopamine hydrochloride] yielded an EC50 (JumpIn-DAT cells [3]; 0.5 h, read-out: pEC50 ± SEM (apparent potency of dopamine), JumpIn-DAT –dox (converted), fixed pseudo-Hill slope of 1, net AUC first 30 min) of 7.94 µM, an EC50 (JumpIn-DAT cells [3]; read-out: EC50 in µM, JumpIn-DAT +dox pretreated 1 h with 10 µM GBR12909, fixed pseudo-Hill slope of 1) of 26 µM and an EC50 (JumpIn-DAT cells [3]; read-out: EC50 in µM, JumpIn-DAT +dox pretreated 1 h with 10 µM cocaine, fixed pseudo-Hill slope of 1) of 13 µM. For the same compound, the EC50 (JumpIn-DAT cells [3]; read-out: EC50 in µM, JumpIn-DAT –dox, fixed pseudo-Hill slope of 1) was 8 µM, the EC50 (JumpIn-DAT cells [3]; read-out: pEC50 ± SEM (apparent potency of dopamine), JumpIn-DAT +dox (1 µg/ml), vehicle-pretreated (converted), fixed pseudo-Hill slope of 1) was 50.1 µM and the EC50 (JumpIn-DAT cells [3]; read-out: pEC50 ± SEM (apparent potency of dopamine), JumpIn-DAT +dox pretreated 1 h with 10 µM GBR12909 (converted), fixed pseudo-Hill slope of 1) was 25.1 µM. For the same compound, the EC50 (JumpIn-DAT cells [3]; read-out: pEC50 ± SEM (apparent potency of dopamine), JumpIn-DAT +dox pretreated 1 h with 10 µM cocaine (converted), fixed pseudo-Hill slope of 1) was 12.6 µM, the EC50 (JumpIn-DAT cells [3]; read-out: pEC50 ± SEM (variable slope), JumpIn-DAT +dox (converted), variable slope model) was 31.6 µM and the EC50 (JumpIn-DAT cells [3]; read-out: pEC50 ± SEM (variable slope), JumpIn-DAT +dox + 10 µM GBR12909 (converted), variable slope model) was 31.6 µM. The EC50 (JumpIn-DAT cells [3]; read-out: pEC50 ± SEM (variable slope), JumpIn-DAT +dox + 10 µM cocaine (converted), variable slope model) was 20 µM.
For `Cl.Cl.Fc1ccc(C(OCCN2CCN(CCCc3ccccc3)CC2)c2ccc(F)cc2)cc1` [GBR12909, GBR12909 dihydrochloride], the “effect of pretreatment itself on impedance” value (U2OS-DAT cells [4]) is listed as “did not substantially affect impedance”, the “effect of pretreatment on its own on impedance” value (JumpIn-DAT cells [1]) is listed as “did not substantially affect impedance over time” and the “pIC50, MPP+-induced toxicity inhibition” value (DAT [5]) is listed as 7.0. For the same compound, the “affinity for DAT” value (DAT [6]) was “low nanomolar” and the “enhancement of the apparent potency of dopamine by DAT inhibitor” value [2] was “twofold”.
For `CN1CCc2cc(Cl)c(O)cc2[C@@H](c2ccccc2)C1` [SCH23390, SCH23390 hydrochloride], the “effect on dopamine-induced cell response” value (U2OS-DAT cells [7]) was “completely abolish”, the “effect on dopamine-induced response” value [8] was “eliminated the dopamine-induced response” and the “effect on dopamine response” value (JumpIn-DAT cells [9]) was “not affected”.
With `[3H]CN1[C@H]2CC[C@@H]1[C@@H](C(=O)OC)[C@@H](c1ccc(F)cc1)C2` [[^3H]WIN35,428, [^3H]-2β-carbomethoxy-3β-(4-fluorophenyl)-tropane] the “Bmax (total amount of binding sites)” value (DAT [10]; U2OS-DAT membranes) was 1.6 ± 0.2 pmol/mg protein and the specific binding (DAT [10]; U2OS-mock membranes) was “No specific binding”.
With `CCN1CCC[C@H]1CNC(=O)c1c(O)c(Cl)cc(Cl)c1OC` [raclopride] the “effect on dopamine-induced response” value [8] was “not”.
For `COC(=O)[C@@H]1[C@H]2C[C@H]3c4[nH]c5ccccc5c4CCN3C[C@@H]2CC[C@@H]1O` [yohimbine, Yohimbine hydrochloride], the “effect on dopamine response” value (JumpIn-DAT cells [9]) was “significantly reduced”.
